{
  "source": "patent US7655689B2",
  "about": "“Fused heterocyclic succinimide compounds and analogs thereof, modulators of nuclear hormone receptor function” (Bristol-Myers Squibb Company, priority 2000, dated 2010)",
  "key": {"[1]": {"target": "glucocorticoid receptor (Homo sapiens, UniProt P04150)", "sequence (P04150 whole entry)": "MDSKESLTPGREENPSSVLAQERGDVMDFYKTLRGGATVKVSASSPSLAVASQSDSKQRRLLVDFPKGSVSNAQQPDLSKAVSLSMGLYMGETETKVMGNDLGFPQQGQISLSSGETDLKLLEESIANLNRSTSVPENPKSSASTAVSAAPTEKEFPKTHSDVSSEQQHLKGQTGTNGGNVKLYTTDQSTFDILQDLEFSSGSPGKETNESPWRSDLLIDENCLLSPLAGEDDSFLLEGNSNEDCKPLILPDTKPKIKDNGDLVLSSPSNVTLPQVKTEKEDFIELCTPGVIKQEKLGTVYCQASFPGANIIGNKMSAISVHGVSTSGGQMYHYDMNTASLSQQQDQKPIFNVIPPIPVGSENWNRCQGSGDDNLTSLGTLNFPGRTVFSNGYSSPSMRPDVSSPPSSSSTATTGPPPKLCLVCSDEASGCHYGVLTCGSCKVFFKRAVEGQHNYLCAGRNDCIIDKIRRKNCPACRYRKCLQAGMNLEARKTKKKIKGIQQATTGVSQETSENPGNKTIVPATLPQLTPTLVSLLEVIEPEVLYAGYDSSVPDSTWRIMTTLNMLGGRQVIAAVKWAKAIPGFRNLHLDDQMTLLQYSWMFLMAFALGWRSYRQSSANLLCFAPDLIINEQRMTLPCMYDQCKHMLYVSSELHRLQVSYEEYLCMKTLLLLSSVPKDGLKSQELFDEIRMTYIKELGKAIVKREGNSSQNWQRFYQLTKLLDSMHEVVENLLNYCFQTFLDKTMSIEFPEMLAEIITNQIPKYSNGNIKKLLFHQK", "settings": "concentration ≦10 μM, A549 cells", "procedure": "A549 cells, which contain endogenous glucocorticoid receptor, were stably transfected with an AP-1 DNA binding site attached to the luciferase gene. […] Cells are plated the day before the assay at approximately 40000 cells/well. […] Activity is measured by analysis in a luminometer as compared to control experiments treated with buffer or dexamethasome."}, "[2]": {"target": "T1, AR (Rattus norvegicus, UniProt P15207)", "T1 sequence (P15207 1-902)": "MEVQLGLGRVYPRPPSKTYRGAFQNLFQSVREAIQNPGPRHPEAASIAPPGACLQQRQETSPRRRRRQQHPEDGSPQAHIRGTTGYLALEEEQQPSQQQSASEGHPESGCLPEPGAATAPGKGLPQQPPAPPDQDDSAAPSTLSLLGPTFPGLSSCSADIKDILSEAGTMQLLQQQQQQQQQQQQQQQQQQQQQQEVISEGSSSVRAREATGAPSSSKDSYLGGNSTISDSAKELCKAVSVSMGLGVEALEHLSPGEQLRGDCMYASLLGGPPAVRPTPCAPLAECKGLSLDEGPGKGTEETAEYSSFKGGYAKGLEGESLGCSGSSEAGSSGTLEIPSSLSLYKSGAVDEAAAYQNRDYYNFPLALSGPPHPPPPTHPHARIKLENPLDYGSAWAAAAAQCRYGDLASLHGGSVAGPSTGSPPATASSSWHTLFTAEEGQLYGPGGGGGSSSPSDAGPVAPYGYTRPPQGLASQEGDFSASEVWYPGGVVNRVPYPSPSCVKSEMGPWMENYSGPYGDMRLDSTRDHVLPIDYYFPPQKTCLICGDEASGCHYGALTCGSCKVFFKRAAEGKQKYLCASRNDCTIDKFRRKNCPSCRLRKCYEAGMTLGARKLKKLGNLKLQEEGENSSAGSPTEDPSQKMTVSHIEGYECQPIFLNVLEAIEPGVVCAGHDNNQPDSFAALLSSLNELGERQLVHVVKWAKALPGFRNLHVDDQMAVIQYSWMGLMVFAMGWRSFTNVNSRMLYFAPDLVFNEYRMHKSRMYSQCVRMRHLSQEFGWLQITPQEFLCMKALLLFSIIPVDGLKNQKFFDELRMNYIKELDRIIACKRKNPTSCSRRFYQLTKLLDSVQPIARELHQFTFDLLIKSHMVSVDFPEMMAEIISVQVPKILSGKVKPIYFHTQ", "description": "The activity of compounds of the present invention as AR agonists was investigated in an immature male rat model, a recognized test of anabolic effects in muscle and sustaining effects in sex organs for a given compound, as described in L. G. Hershberger et al., Proc. Soc. […] Yak. Ken. Nem.\nThe basis of this assay lies in the well-defined action of androgenic agents on the maintenance and growth of muscle tissues and sexual accessory organs in animals and man. […] J. Anat. […] I. Quantitative data” Boll.-Soc. Ital. Biol. Sper. […] II. Electron-microscopic observations” Boll.-Soc. Ital. Biol. Sper. […] As described above, the effects of androgens on maintenance of male sexual accessory organs, such as the prostate and seminal vesicles, is well described. Castration results in rapid involution and atrophy of the prostate and seminal vesicles. This effect can be reversed by exogenous addition of androgens. Since both the levator ani muscle and the male sex organs are the tissues most responsive to the effects of androgenic agents, this model is used to determine the androgen dependent reversal of atrophy in the levator ani muscle and the sex accessory organs in immature castrated rats. Sexually mature rats (200-250 g, 6-8 weeks-old, Sprague-Dawley, Harlan) were acquired castrated from the vendor (Taconic). […]"}, "[3]": {"target": "T1, AR", "remark": "listed apart in the source"}},
  "note": "Like-named read-outs stand apart in the source and are kept apart here.",
  "data": [
    {"smiles": "C[C@@H]1C[C@H]2[C@@H]3CCC4=CC(=O)C=C[C@]4(C)[C@@]3(F)[C@@H](O)C[C@]2(C)[C@@]1(O)C(=O)CO", "note": "[dexamethasone]", "values": [
      {"measurement": "suppression of activity (% inhibition of the reporter system vs buffer control with 10 ng/ml PMA)", "setting": "[1]", "value": "~65", "unit": "%"}
    ]},
    {"smiles": "CCC(=O)O[C@H]1CC[C@H]2[C@@H]3CCC4=CC(=O)CC[C@]4(C)[C@H]3CC[C@]12C", "note": "[testosterone propionate, Testosterone Propionate]", "values": [
      {"measurement": "EC50 (increase in organ weight)", "setting": "[2]; castrated rats", "value": "~0.03", "unit": "mg"},
      {"measurement": "potency relative to free T", "setting": "[2]; organ weight increase", "value": "10-30 fold"},
      {"measurement": "ED80", "setting": "[3]; immature castrated rat model", "value": 0.1, "unit": "mg"},
      {"measurement": "EC50 (increase in organ weight)", "setting": "[3]; immature castrated rats", "value": "~0.03", "unit": "mg"},
      {"measurement": "potency relative to free T", "setting": "[3]; organ weight increase, immature castrated rats", "value": "10-30 fold"}
    ]}
  ]
}
